{"source": "patent US7163923B2", "about": "“Peptide deformylase activated prodrugs” (Celmed Oncology (USA), Inc., priority 2001, dated 2007)", "test_in_all_cases": "MIC susceptibility testing (modified NCCLS, 384-well)", "assay_type_in_all_cases": "cell-based", "key": {"[1]": {"test_system": "E. cloacae", "conditions": "Enterobacter cloacae", "experimental": "(§1) The NCCLS (National Committee for Clinical Laboratory Standards), method to determine MIC's of antimicrobial compounds is modified for high-throughput screening. All stocks of tested compounds are prepared in either water or in DMSO depending on solubility. At the highest concentration, DMSO content should not exceed 0.5%. Briefly, twenty 2-fold serial dilutions of test compounds from the highest concentration are made in a 384-well microtiter plate. […] Bacterial growth is determined by the increase of optical density at 600 nm using a microplate reader (Tecan SpectraFluor Plus)."}, "[2]": {"test_system": "P. aeruginosa", "conditions": "Pseudomonas aeruginosa", "experimental": "as §1"}, "[3]": {"test_system": "M. catarrhalis", "experimental": "as §1"}, "[4]": {"test_system": "E. aerogenes", "conditions": "Klebsiella aerogenes", "experimental": "as §1"}, "[5]": {"test_system": "H. influenzae", "conditions": "Haemophilus influenzae", "experimental": "as §1"}, "[6]": {"test_system": "S. epidermidis", "conditions": "Staphylococcus epidermidis", "experimental": "as §1"}, "[7]": {"test_system": "E. faecalis", "conditions": "Enterococcus faecalis", "experimental": "as §1"}, "[8]": {"test_system": "K. pneumoniae", "conditions": "Klebsiella pneumoniae", "experimental": "as §1"}}, "note": "Where two headings read alike, the source gives them in different places."}
{"smiles": "CSCCC(NC=O)C(=O)NC(CC(C)C)C(=O)Oc1cc(Cl)ccc1Oc1ccc(Cl)cc1Cl", "note": "(stereo not shown) [NB2046, 2-(2-formylamino-4-methylsulfanyl-butyrylamino)-4-methyl-pentanoic acid 5-chloro-2-(2,4-dichloro-phenoxy)-phenyl ester]", "values": [{"measurement": "MIC", "setting": "[1]; ATCC23355, E. cloacae ATCC 23355, Exp. #1, Table 3", "value": 0.5, "unit": "µg/mL"}, {"measurement": "MIC", "setting": "[1]; ATCC23355, E. cloacae ATCC 23355, Exp. #1, Table 4", "value": 16, "unit": "µg/mL"}, {"measurement": "MIC", "setting": "[1]; ATCC23355, E. cloacae ATCC 23355, Exp. #2, Table 3", "value": 0.5, "unit": "µg/mL"}, {"measurement": "MIC", "setting": "[1]; ATCC23355, E. cloacae ATCC 23355, Exp. #2, Table 4", "value": 1, "unit": "µg/mL"}, {"measurement": "MIC", "setting": "[2]; ATCC21726, P. aeruginosa ATCC 21726, Exp. #1, Table 4", "value": "> 64", "unit": "µg/mL"}, {"measurement": "MIC", "setting": "[2]; ATCC21726, P. aeruginosa ATCC 21726, Exp. #2, Table 4", "value": "≥ 64", "unit": "µg/mL"}, {"measurement": "MIC", "setting": "[2]; ATCC29872, P. aeruginosa ATCC 29872, Exp. #1, Table 4", "value": "> 64", "unit": "µg/mL"}, {"measurement": "MIC", "setting": "[2]; ATCC29872, P. aeruginosa ATCC 29872, Exp. #2, Table 4", "value": "≥ 64", "unit": "µg/mL"}, {"measurement": "MIC", "setting": "[3]; M. catarrhalis ATCC 43627, Exp. #2, Table 3", "value": "≦0.125 μg/ml"}, {"measurement": "MIC", "setting": "[3]; M. catarrhalis ATCC 43628, Exp. #2, Table 3", "value": "≦0.125 μg/ml"}, {"measurement": "MIC", "setting": "[3]; M. catarrhalis ATCC 49265, Exp. #2, Table 3", "value": "≦0.125 μg/ml"}, {"measurement": "MIC", "setting": "[3]; M. catarrhalis ATCC 51584, Exp. #2, Table 3", "value": "≦0.125 μg/ml"}, {"measurement": "MIC", "setting": "[3]; Moraxella catarrhalis, ATCC43627, M. catarrhalis ATCC 43627, Exp. #1, Table 3, read-out: MIC", "value": "≤ 0.125", "unit": "µg/mL"}, {"measurement": "MIC", "setting": "[3]; Moraxella catarrhalis, ATCC43628, M. catarrhalis ATCC 43628, Exp. #1, Table 3, read-out: MIC", "value": "≤ 0.125", "unit": "µg/mL"}, {"measurement": "MIC", "setting": "[3]; Moraxella catarrhalis, ATCC49265, M. catarrhalis ATCC 49265, Exp. #1, Table 3, read-out: MIC", "value": "≤ 0.125", "unit": "µg/mL"}, {"measurement": "MIC", "setting": "[3]; Moraxella catarrhalis, ATCC51584, M. catarrhalis ATCC 51584, Exp. #1, Table 3, read-out: MIC", "value": "≤ 0.125", "unit": "µg/mL"}, {"measurement": "MIC", "setting": "[4]; ATCC13048, E. aerogenes ATCC 13048, Exp. #1, Table 3", "value": 1, "unit": "µg/mL"}, {"measurement": "MIC", "setting": "[4]; ATCC13048, E. aerogenes ATCC 13048, Exp. #2, Table 3", "value": 1, "unit": "µg/mL"}, {"measurement": "MIC", "setting": "[4]; ATCC29009, E. aerogenes ATCC 29009, Exp. #1, Table 3", "value": 0.25, "unit": "µg/mL"}, {"measurement": "MIC", "setting": "[4]; ATCC29009, E. aerogenes ATCC 29009, Exp. #2, Table 3", "value": "≤ 0.125", "unit": "µg/mL"}, {"measurement": "MIC", "setting": "[4]; ATCC29751, E. aerogenes ATCC 29751, Exp. #1, Table 3", "value": 2, "unit": "µg/mL"}, {"measurement": "MIC", "setting": "[4]; ATCC29751, E. aerogenes ATCC 29751, Exp. #2, Table 3", "value": 1, "unit": "µg/mL"}, {"measurement": "MIC", "setting": "[4]; ATCC35028, E. aerogenes ATCC 35028, Exp. #1, Table 3", "value": 4, "unit": "µg/mL"}, {"measurement": "MIC", "setting": "[4]; ATCC35028, E. aerogenes ATCC 35028, Exp. #1, Table 4", "value": 32, "unit": "µg/mL"}, {"measurement": "MIC", "setting": "[4]; ATCC35028, E. aerogenes ATCC 35028, Exp. #2, Table 3", "value": 2, "unit": "µg/mL"}, {"measurement": "MIC", "setting": "[4]; ATCC35028, E. aerogenes ATCC 35028, Exp. #2, Table 4", "value": 16, "unit": "µg/mL"}, {"measurement": "MIC", "setting": "[5]; ATCC33533, H. influenzae ATCC 33533, Exp. #1, Table 4", "value": 64, "unit": "µg/mL"}, {"measurement": "MIC", "setting": "[5]; ATCC33533, H. influenzae ATCC 33533, Exp. #2, Table 4", "value": "≥ 64", "unit": "µg/mL"}, {"measurement": "MIC", "setting": "[6]; ATCC27626, S. epidermidis ATCC 27626, Exp. #1, Table 3", "value": "≤ 0.125", "unit": "µg/mL"}, {"measurement": "MIC", "setting": "[6]; ATCC27626, S. epidermidis ATCC 27626, Exp. #2, Table 3", "value": "≤ 0.125", "unit": "µg/mL"}, {"measurement": "MIC", "setting": "[6]; ATCC700565, S. epidermidis ATCC 700565, Exp. #1, Table 3", "value": 2, "unit": "µg/mL"}, {"measurement": "MIC", "setting": "[6]; ATCC700565, S. epidermidis ATCC 700565, Exp. #2, Table 3", "value": 2, "unit": "µg/mL"}, {"measurement": "MIC", "setting": "[6]; ATCC700566, S. epidermidis ATCC 700566, Exp. #1, Table 3", "value": "≤ 0.125", "unit": "µg/mL"}, {"measurement": "MIC", "setting": "[6]; ATCC700566, S. epidermidis ATCC 700566, Exp. #2, Table 3", "value": "≤ 0.125", "unit": "µg/mL"}, {"measurement": "MIC", "setting": "[6]; ATCC700578, S. epidermidis ATCC 700578, Exp. #1, Table 3", "value": 0.5, "unit": "µg/mL"}, {"measurement": "MIC", "setting": "[6]; ATCC700578, S. epidermidis ATCC 700578, Exp. #2, Table 3", "value": 0.25, "unit": "µg/mL"}, {"measurement": "MIC", "setting": "[6]; ATCC700583, S. epidermidis ATCC 700583, Exp. #1, Table 3", "value": "≤ 0.125", "unit": "µg/mL"}, {"measurement": "MIC", "setting": "[6]; ATCC700583, S. epidermidis ATCC 700583, Exp. #2, Table 3", "value": "≤ 0.125", "unit": "µg/mL"}, {"measurement": "MIC", "setting": "[7]; ATCC49757, E. faecalis ATCC 49757, Exp. #1, Table 4", "value": 64, "unit": "µg/mL"}, {"measurement": "MIC", "setting": "[7]; ATCC49757, E. faecalis ATCC 49757, Exp. #2, Table 4", "value": 32, "unit": "µg/mL"}, {"measurement": "MIC", "setting": "[7]; ATCC700802, E. faecalis ATCC 700802, Exp. #1, Table 4", "value": 32, "unit": "µg/mL"}, {"measurement": "MIC", "setting": "[7]; ATCC700802, E. faecalis ATCC 700802, Exp. #2, Table 4", "value": 32, "unit": "µg/mL"}, {"measurement": "MIC", "setting": "[8]; ATCC51503, K. pneumoniae ATCC 51503, Exp. #1, Table 3", "value": 8, "unit": "µg/mL"}, {"measurement": "MIC", "setting": "[8]; ATCC51503, K. pneumoniae ATCC 51503, Exp. #1, Table 4", "value": 4, "unit": "µg/mL"}, {"measurement": "MIC", "setting": "[8]; ATCC51503, K. pneumoniae ATCC 51503, Exp. #2, Table 3", "value": 8, "unit": "µg/mL"}, {"measurement": "MIC", "setting": "[8]; ATCC51503, K. pneumoniae ATCC 51503, Exp. #2, Table 4", "value": 8, "unit": "µg/mL"}, {"measurement": "MIC", "setting": "[8]; ATCC51504, K. pneumoniae ATCC 51504, Exp. #1, Table 3", "value": 1, "unit": "µg/mL"}, {"measurement": "MIC", "setting": "[8]; ATCC51504, K. pneumoniae ATCC 51504, Exp. #2, Table 3", "value": 2, "unit": "µg/mL"}, {"measurement": "MIC", "setting": "[8]; ATCC700721, K. pneumoniae ATCC 700721, Exp. #1, Table 3", "value": 2, "unit": "µg/mL"}, {"measurement": "MIC", "setting": "[8]; ATCC700721, K. pneumoniae ATCC 700721, Exp. #1, Table 4", "value": 4, "unit": "µg/mL"}, {"measurement": "MIC", "setting": "[8]; ATCC700721, K. pneumoniae ATCC 700721, Exp. #2, Table 3", "value": 2, "unit": "µg/mL"}, {"measurement": "MIC", "setting": "[8]; ATCC700721, K. pneumoniae ATCC 700721, Exp. #2, Table 4", "value": 8, "unit": "µg/mL"}]}
